Blank lines part the entries; values can stand above or below the compound they belong to.
How the values were obtained:
MjCobT [1] = molecular target: T1, MjCobT (Methanocaldococcus jannaschii, UniProt Q58993); assay: isothermal titration calorimetry; type: binding
T1 sequence (Q58993 1-350): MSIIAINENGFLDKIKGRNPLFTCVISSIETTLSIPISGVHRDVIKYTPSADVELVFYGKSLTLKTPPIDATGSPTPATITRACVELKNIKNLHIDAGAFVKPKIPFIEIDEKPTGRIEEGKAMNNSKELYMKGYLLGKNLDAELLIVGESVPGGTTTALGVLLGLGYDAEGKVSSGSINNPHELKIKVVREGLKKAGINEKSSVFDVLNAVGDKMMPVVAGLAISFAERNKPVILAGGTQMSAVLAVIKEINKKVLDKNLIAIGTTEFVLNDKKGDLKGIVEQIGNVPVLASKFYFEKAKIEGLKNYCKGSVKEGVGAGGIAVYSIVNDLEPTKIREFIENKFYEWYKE

MjCobT [2] = molecular target: T1, MjCobT; assay: product formation by purified enzyme from NaMN and [[…]-14C]-DMB, TLC; type: biochemical
[3] = molecular target: Methanocaldococcus jannaschii CobT (NaMN:DMB phosphoribosyltransferase) (Methanocaldococcus jannaschii); assay: AUC

Compound: O=C([O-])c1ccc[n+]([C@@H]2O[C@H](COP(=O)(O)O)[C@@H](O)[C@H]2O)c1 [NaMN]
Kd (MjCobT [1]): 3.2 µM

Compound: Cc1cc2ncn([C@H]3O[C@H](COP(=O)(O)O)[C@@H](O)[C@H]3O)c2cc1C [α-RP]
product formation by purified enzyme from NaMN and [2-14C]-DMB, TLC (MjCobT [2]): the amount of MjCobT-generated α-RP is displayed as a function of time for each concentration of NaMN tested

percent of the c(s) distribution in the dimer species [3]: 81.3%
stoichiometry N [3]: 2
Compound: Methanocaldococcus jannaschii CobT (NaMN:DMB phosphoribosyltransferase) (enzyme)

Reference: paper PMC6380956 (Biochemistry, 2019)
